Test results as given in patent US20220242874A1, “CAMPTOTHECIN DERIVATIVES” (SUN PHARMA ADVANCED RESEARCH COMPANY LIMITED, priority 2019, published 2022).
Read-outs that look alike come from different tables or passages of the source.

Key:
[1] = Comparison of solubility in water; format: physicochemical
Excerpt: Comparison of Solubility of Compound I.4 in Water with SN-38

[2] = mouse, 2000 ng/mL, pH 5.5
Protocol: Aliquot of 100 μL were taken from stability samples in pre-labelled micro-centrifuge tubes. 5 μL of cetirizine working internal standard (5 μg/mL) was added to each tube and vortexed well. 1 mL acetonitrile was added to each tube and vortexed well and then centrifuge at 10000 RPM for 5 min at room temperature. The supernatant was collected in ria vials and evaporated to dryness under nitrogen stream. The samples were reconstituted in 1 mL of 0.1% formic acid in water: acetonitrile 30:70 v/v. The prepared samples were analyzed using LC-MS/MS method. Quantification was done against SN-38 standard, prepared at 2000 ng/mL concentration. SN-38 standard prepared by spiking 5 μL of SN-38 working standard to 95 μL of blank mice tumor homogenate to achieve 2000 ng/mL concentration and vortexed well and processed as described.
LC-MS/MS Method: Chromatographic separation was achieved on Inertsil C8-3 (50×4.6 mm, 5 μ) with a flow rate of 250 μL/min and an injection volume of 10 μL. The sample cooler was maintained at 10° C. The column oven temperature was set to 40° C. The mobile phase consisted of 0.1% formic acid in Milli Q water and acetonitrile in the ratio of 30:70 v/v, respectively. […] The overall chromatographic run time was 4.0 minutes.
Detection was performed by tandem mass spectrometry (TSQ Quantum, Discovery MAX, Thermo Electron Corporation) and peak areas were integrated using LCquan software version 2.9 QF1.
0 hr standard area was considered as 100% for calculation.

[3] = Camptosar Prescribing Information; cited from earlier work

Solubility in water [1]: Practically insoluble in water
% Remaining in tumor lysate ([2]; 0 h): 100.0%
% Remaining in tumor lysate ([2]; 1 h): 94.9%
% Remaining in tumor lysate ([2]; 2 h): 90.7%
% Remaining in tumor lysate ([2]; 4 h): 100.1%
% Remaining in tumor lysate ([2]; 6 h): 88.9%
% Remaining in tumor lysate ([2]; 8 h): 91.4%
Structure (SMILES): CCc1c2c(nc3ccc(O)cc13)-c1cc3c(c(=O)n1C2)COC(=O)[C@]3(O)CC [SN-38]
protein bound in plasma [3]: About 96%
